Assay results: PMC10223822, “Identification of the Hepatic Metabolites of Flumazenil and their Kinetic Application in Neuroimaging” (Pharmaceuticals, 2023)

Columns and labels:
[1] = Flumazenil biotransformation in rat liver homogenate (HPLC-DAD/tandem MS); format: in vitro ADME
Protocol: (§1) The quantification of flumazenil metabolism by hepatic enzymes was performed using HPLC (Agilent 1100 series, Palo Alto, CA, USA), which is comprised of an online degasser, a binary pump, an auto sampler, a thermostat column oven (maintained at 25 °C), and a diode array detector (DAD, 250 nm). Data were acquired and processed using the Agilent ChemStation software (ed. 10.02). Separation was achieved using a C18 column with a guard column and an ammonium acetate buffer–acetonitrile gradient elution. The mobile phase consisted of eluents A (5 mM ammonium acetate aqueous buffer with 1% ACN, pH 7.0) and B (ACN only) at a flow rate of 0.6 mL min^−1. These were mixed to separate the metabolites and flumazenil from the sample matrices, according to the gradient program shown in Table 1. The overall LC time for flumazenil biotransformation was 15 min. An analyte solution of 5 µL was injected using an auto-sampler thermostat at 4 °C.
(§2) Mass spectrometric analysis of flumazenil in ACN was initially conducted on a 4000 QTrap LC-MS/MS system using API Analyst software 1.4.1 (AB Sciex, Concord, ON, Canada) to obtain the appropriate MS parameters and m/z for flumazenil fragments. Samples were introduced into the spectrometer, either by the HPLC system (Agilent 1100) or by a syringe pump, at a flow rate of 10 µL min^−1 (Harvard Apparatus Inc., Holliston, MA, USA). Chromatographic separation was conducted as described in the HPLC conditions section. The analytes were ionized by a turbo spray ion source (electrospray ionization, [ESI]) in the positive-ion mode at 5000 V and 350 °C. Mass spectra were recorded within a range of 100–1000 amu with unit resolutions of Q1 and Q3. The LC-tandem MS determination of flumazenil concentration was conducted in the multiple reaction monitoring positive-ion mode with transition ion pairs 304 → 258 and 304 → 276. Vaporized liquid nitrogen gas was used as the nebulizer, curtain, and collision gas in all 4000 QTrap LC–MS/MS studies.
Normal rat livers were obtained from healthy male SD rats weighing 400–450 g. […]

[2] = Flumazenil metabolization in rat liver microsomes (LC-DAD/tandem MS); format: in vitro ADME
Protocol: as §1
as §2, with “Vaporized liquid nitrogen gas was used as the nebulizer, curtain, and collision gas in all 4000 QTrap LC–MS/MS studies.” left out
Incubation solutions were prepared according to the manufacturer’s instructions. […] The supernatants were filtered through a 0.22 µm PVDF disk filter and analyzed using LC-DAD and tandem MS. […]

[3] = Radiochemical stability of [18F]flumazenil in 30% ethanol after end of synthesis; format: physicochemical; conditions: amber glass vial, room temperature, 8 h after end of synthesis (EOS)
[4] = In vitro serum stability of [18F]flumazenil (radio-TLC); conditions: for Radiochemical Purity (RCP, %) in serum: rat serum, 37 °C
Protocol: Serum preparation: healthy SD rats were deeply anesthetized with isoflurane gas (3% isoflurane in 50% oxygen, 1 mL/min). One milliliter of whole blood from healthy SD rats was withdrawn through the tail vein at room temperature and centrifuged at 3000 rpm for 10 min to obtain the prepared serum for stability testing.

COC(=O)c1ncn2c1CN(C)C(=O)c1cc(F)ccc1-2 [Metabolite M1]
M1 formation ([1]; flumazenil incubated in rat liver homogenate 0–250 min): relatively low amount

CN1Cc2c(C(=O)O)ncn2-c2ccc(F)cc2C1=O [Metabolite M2]
peak area of M2 increased by ([2]; up to 120 min incubation): 72%

CN1Cc2c(C(=O)OCCO)ncn2-c2ccc(F)cc2C1=O [Metabolite M3]
change of peak area of M3 ([2]; up to 120 min incubation): No significant increase

CCOC(=O)c1ncn2c1CN(C)C(=O)c1cc([18F])ccc1-2 [[^18F]flumazenil]
radiochemical purity in 30% ethanol [3]: > 90% | Radiochemical Purity (RCP, %) in serum ([4]; 0 min): 95.76% | Radiochemical Purity (RCP, %) in serum ([4]; 5 min): 93.28% | Radiochemical Purity (RCP, %) in serum ([4]; 10 min): 91.07% | Radiochemical Purity (RCP, %) in serum ([4]; 30 min): 87.46% | Radiochemical Purity (RCP, %) in serum ([4]; 60 min): 85.68% | Radiochemical Purity (RCP, %) in serum ([4]; 120 min): 79.95% | Radiochemical Purity (RCP, %) in serum ([4]; 240 min): 72.13% | intact [18F]flumazenil in serum ([4]; up to 1 h of incubation, regular conditions): > 85% | biotransformed metabolites in metabolism analysis ([1]; after 30 min, as worded in conclusions): about 50%

CCOC(=O)c1ncn2c1CN(C)C(=O)c1cc(F)ccc1-2 [flumazenil, ethyl 8-fluoro-5-methyl-6-oxo-5,6-dihydro-4H-benzo[f]imidazo [1,5-a] [1, 4]diazepine-3-carboxylate]
flumazenil detected, of the initial amount ([2]; 120 min incubation): approximately 22% | parent drug biotransformed (parent peak area) ([1]; rat liver homogenate, 37 °C, 4 h (240 min)): approximately 65%
